Values after ≈ are worked out from the molar mass of the structure shown. Read-outs that look alike come from different tables or passages of the source.
Assays:
[1] = Metabolic stability in human liver microsomes (HLM Clint); assay type: in vitro ADME
[2] = Solubility assay (kinetic solubility); assay type: physicochemical; design: Kinetic Sol.: unit not given here
[3] = LogD measurement at pH 7.4; assay type: physicochemical
hERG [4] = target: T1, hERG (Homo sapiens (Human), UniProt Q12809); experiment: hERG FLIPR Potassium assay, CHO/hERG cell line; settings: at the concentration given as hERG IC50 bound
T1 sequence (Q12809 whole entry): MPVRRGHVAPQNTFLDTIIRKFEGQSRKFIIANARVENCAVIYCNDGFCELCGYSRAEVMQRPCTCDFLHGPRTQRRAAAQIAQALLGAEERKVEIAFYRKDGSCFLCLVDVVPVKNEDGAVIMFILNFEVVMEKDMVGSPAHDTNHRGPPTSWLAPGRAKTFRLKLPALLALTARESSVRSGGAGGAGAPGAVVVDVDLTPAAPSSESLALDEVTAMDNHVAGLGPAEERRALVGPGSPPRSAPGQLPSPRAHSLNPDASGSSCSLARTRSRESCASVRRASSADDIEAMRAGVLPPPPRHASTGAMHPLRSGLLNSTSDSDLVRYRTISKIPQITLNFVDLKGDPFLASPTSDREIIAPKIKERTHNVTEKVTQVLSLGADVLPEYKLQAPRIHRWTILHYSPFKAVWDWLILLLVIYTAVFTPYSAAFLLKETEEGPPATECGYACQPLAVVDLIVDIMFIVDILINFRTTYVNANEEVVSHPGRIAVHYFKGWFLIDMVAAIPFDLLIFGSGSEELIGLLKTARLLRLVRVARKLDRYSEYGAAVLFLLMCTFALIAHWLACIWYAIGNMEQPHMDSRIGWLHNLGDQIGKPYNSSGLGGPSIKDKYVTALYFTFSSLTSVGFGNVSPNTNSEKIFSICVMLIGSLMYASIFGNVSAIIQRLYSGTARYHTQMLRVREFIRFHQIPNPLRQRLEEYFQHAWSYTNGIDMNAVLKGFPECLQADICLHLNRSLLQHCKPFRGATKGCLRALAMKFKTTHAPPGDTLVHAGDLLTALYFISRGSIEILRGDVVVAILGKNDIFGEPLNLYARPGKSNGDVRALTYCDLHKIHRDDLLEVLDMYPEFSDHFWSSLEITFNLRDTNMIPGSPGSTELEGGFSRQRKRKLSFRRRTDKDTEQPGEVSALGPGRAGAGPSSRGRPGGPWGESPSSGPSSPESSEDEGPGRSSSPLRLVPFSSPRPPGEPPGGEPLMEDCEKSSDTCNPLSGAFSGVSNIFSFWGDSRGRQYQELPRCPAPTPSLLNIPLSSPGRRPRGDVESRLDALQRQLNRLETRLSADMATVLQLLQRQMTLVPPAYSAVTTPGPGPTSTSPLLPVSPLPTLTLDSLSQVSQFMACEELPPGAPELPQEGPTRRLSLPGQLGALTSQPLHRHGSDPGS

human sensory neurons = experiment: Spontaneous activity of human sensory neurons differentiated from hNPCs; assay type: cell-based; settings: 5 μM, reversible
Description: Cell culture and differentiation: Human PSC-derived neural progenitor cells (Stem Cell Catalog No. 70901 and 70902) were cultured and expanded on Matrigel coated 6-wells plates, using neuronal progenitor medium containing: Neurobasal media supplemented by non-essential amino-acids, 1%; Glutamax, 1%; B27, 2%, FGF2, 20 ng/ml). hNPC were then plated onto PDL and Matrigel coated 12 mm coverglass at a density of about 50,000 cells/well of a 6 well, in DMEM/F12; 10% KSR; 1% P/S and A83-01 (2 M) from days 0-5. From days 0-9 the medium contained also CHIR99021 (6 μM). From Day 3-9 the medium included R04929097 (2 μM) and SU5402 (3 μM). From day 9 and onwards, the media change (Neurobasal Media contains: NT-3; BDNF; NGF; GDNF) was performed every other day by replacing only 50% of the media after CO2 equilibrating. […]
Electrophysiology: To characterize the neuronal properties with electrophysiology recordings, round small neurons (20-40 μm in diameter) were selected from day 31 and onwards. Cells were monitored for their polarized negative membrane potential and for their ability to evoke consistent spikes train responses to repeated positive current injections as a mark of achieving electrical maturation before testing the effect of the tested compounds on neuronal excitability. Membrane excitability was monitored using current clamp. […]

Kv7.3/5, Kv7.4 = settings: positive control, Kv7.3/5, Kv7.4 assay; read-out: Known IC50; cited from earlier work
hTRPV1 [5] = target: T2, hTRPV1 (Homo sapiens (Human), UniProt Q8NER1); experiment: High content screen (HCS) Fluo-8 No Wash calcium flux assay, capsaicin activation, CHO cells expressing hTRPV1; assay type: cell-based; settings: CHO cells expressing hTRPV1, fluorescent HCS; read-out: TRPV1 IC50
T2 sequence (Q8NER1 whole entry): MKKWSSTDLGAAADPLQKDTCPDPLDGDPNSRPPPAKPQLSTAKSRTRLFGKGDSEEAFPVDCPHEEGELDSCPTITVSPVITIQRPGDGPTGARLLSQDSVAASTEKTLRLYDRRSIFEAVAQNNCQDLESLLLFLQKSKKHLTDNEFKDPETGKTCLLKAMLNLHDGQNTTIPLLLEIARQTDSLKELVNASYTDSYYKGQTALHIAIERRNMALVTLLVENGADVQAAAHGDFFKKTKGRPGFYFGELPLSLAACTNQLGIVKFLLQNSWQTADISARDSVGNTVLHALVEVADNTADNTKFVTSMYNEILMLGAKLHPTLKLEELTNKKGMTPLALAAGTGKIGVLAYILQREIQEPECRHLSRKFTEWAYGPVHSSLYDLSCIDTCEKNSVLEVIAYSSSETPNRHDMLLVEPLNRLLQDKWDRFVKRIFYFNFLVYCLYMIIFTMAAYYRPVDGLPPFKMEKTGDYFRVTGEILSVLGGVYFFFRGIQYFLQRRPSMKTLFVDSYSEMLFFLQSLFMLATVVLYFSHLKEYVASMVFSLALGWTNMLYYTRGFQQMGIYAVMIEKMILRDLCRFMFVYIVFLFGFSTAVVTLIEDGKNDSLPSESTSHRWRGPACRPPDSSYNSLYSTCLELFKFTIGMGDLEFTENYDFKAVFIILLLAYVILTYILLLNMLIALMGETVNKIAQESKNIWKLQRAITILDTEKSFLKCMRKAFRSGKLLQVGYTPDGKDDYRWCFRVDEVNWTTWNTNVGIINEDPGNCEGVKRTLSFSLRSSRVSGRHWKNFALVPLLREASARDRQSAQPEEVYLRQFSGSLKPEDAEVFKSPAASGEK

human Kv7.2/3 channels = human Kv7.2/3 channels (Homo sapiens (Human), UniProt O43525+O43526); experiment: High content screen (HCS) FLIPR Potassium (thallium flux) assay, CHO/hKv7.2/3 cell line; assay type: cell-based; settings: head prints IC50; channel activation in CHO/hKv7.2/3, fluorescent HCS; read-out: Kv7.2/7.3 IC50
Description: Cell culture: […] To maintain the stability of human Kv7.2/7.3 expression antibiotic selection was added (Puromycin g/ml). High content screen (HCS) using FLIPR Potassium Assay Kit: FLIPR Potassium Assay Kit ([…] FLIPR Potassium Assay Explorer Kits, Molecular Devices) was used with the CHO/hKv7.2/3 cell line to screen molecules against the hKv7.2/7.3 ion channel target. The assay exploits the permeability of thallium ions (Tl+) through potassium (K^+) channels. In this assay, Tl+ indicator dye is used to produce a bright fluorescent signal upon the binding to Tl+ conducted through the potassium channels. The intensity of the Tl+ signal is proportional to the number of potassium channels in the open state. Therefore, it provides a functional indication of the potassium channel activity. To activate the voltage-gate potassium channels, the cells were stimulated with a mixture of K+ and Tl+ to depolarize the cell membrane. The fluorescence increase in the assay represents the influx of Tl+ into the cell specifically through the potassium channel, providing a functional read-out of hKv7.2/3 activity using a fluorescent plate reader coupled with injectors used to activate the channels. […] Tecan Spark reader plate injectors were primed with Tl+ (1 mM Tl2SO4) or Tl++K+ (1 mM Tl2SO4; 5 mM K2SO4) for channel activation and data correction. […]

[6] = test system: primary neonatal rat DRG neurons; experiment: Rat DRG neuron firing, current-induced and capsaicin-induced (current clamp); assay type: cell-based
Source text: rDRGs isolation and primary cell culture: Briefly, rat DRGs from all spinal levels were carefully removed and collected in HBSS on ices, connective tissue of the epineurium surrounding the ganglion was removed and cells were dissociated using Collagenase-II and trypsin dissociation solutions. DRGs were dissociated further, passed through glass Pasteur pipettes to obtain single cells. Then dissociation solution was changed to 5% FBS containing DRG neuronal culture medium and plated onto ECL coated 12 mm cover glass.
Additional rDRGs experiments were performed using Lonza primary neonatal rat (Sprague Dawley neonatal; P2,3) DRG neurons (R-DRG-505, Lonza) plated and cultured according to the manufacturer.
These cryopreserved DRG cells were prepared from freshly isolated and dissociated spinal cord dorsal root ganglia and comprise a normal distribution of neurons and glia (schwann cells).
Electrophysiology: Cells were used for electrophysiological recording in the 48 hours following rDRG isolation. Round small neurons (20-40 m in diameter) were selected for electrophysiology recordings, to select for small nociceptive neurons that propagate pain sensation in vivo and that are expressing both Kv7.2/3 and TRPV1 targets. Membrane excitability was monitored using current clamp. Positive current steps of different amplitude were injected (400 ms) to induce spikes trains before and following compound application.
The inhibitory potency of the newly designed compounds was studied on neuronal excitability in an experimental system of high physiological relevance, primary neonatal rat DRG neurons (Sprague Dawley neonatal; P2,3; R-DRG-505, Lonza). These cryopreserved DRG cells are prepared from freshly isolated and dissociated spinal cord dorsal root ganglia and comprise a normal distribution of neurons and glia (schwann cells).
The inhibitory potency was tested both on current-induced and Capsaicin-induced neuronal activity.

hERG [7] = target: T1, hERG; experiment: in vitro; settings: hamster, CHO cells that express human hERG
hERG [8] = target: T1, hERG; experiment: cell-based
[9] = test system: NGF-treated rat DRG neurons; experiment: Neuropathic model in rat DRGs (NGF pretreatment, capsaicin induced tetanic burst); assay type: cell-based; settings: NGF 100 ng/ml pretreatment, compound at 100 nM
Description: FIG. 8B presents representative data obtained in assays in which neurons were pretreated with NGF 100 ng/ml for 4-5 days. NGF Non-treated rat DRGs were stimulated by repeated capsaicin application with and without 421-6 at 2 μM (top panel) or 100 nM (Middle panel).
DRGs treated with NGF show tetanic action potential burst in response to CAP application, mimicking neuropathic like response. See, Background Art FIG. 8A. NGF enhances TRPV1 function using Calcium-dependent fluorescence, F, relative to maximal fluorescence, Fmax, as a function of time from a single HEK293 cell stably transfected with TrkA and transiently transfected with hTRPV1. Pulses of capsaicin (100 nM, applied as shown at top) elicited submaximal increases in [Ca]i. Exposure to NGF (100 ng/ml, see top) enhanced the capsaicin induced calcium increase. Arrows show responses used for calculation of sensitization ratio.

hTRPV1 [10] = target: T2, hTRPV1; experiment: TRPV1 electrophysiology in CHO cells co-expressing hKv7.2/3 and hTRPV1; assay type: cell-based; settings: also when co-applied with retigabine
Source text: To exemplify the functional coupling of Kv7.2/3 and TRPV1, stably expressing Kv7.2/3 cells were transfected with human TRPV1 and their response to current ramp to −40 mV (Kv activation) and capsaicin (TRPV1 activation) was examined electrophysiologically.

Row | Compound | HLM Clint [1] | Kinetic Sol. [2] | LogD [3] | hERG, percent in parentheses beside the IC50 bound (hERG [4]) | also measured
1 | O=C(Cc1cncc(-n2cc(Cl)c3cc(Cl)cc(Cl)c32)c1)N[C@@H]1COC[C@H]1O [Compound 661] | 72 µL/min/mg | 40 | 3.55 | (0%) | –
2 | COC[C@@H](CO)NC(=O)Cc1cc(Sc2c(Cl)cc(F)cc2C(C)C)ccc1F [Compound 415] | 839 µL/min/mg | 26.7 | 4.25 | (0%) | spontaneous neuronal activity (human sensory neurons): significantly reduced
3 | CC(C)c1cc(Cl)cc(Cl)c1C(=O)c1ccc(F)c(CC(=O)NCC2(O)CCC2)c1 [Compound 569] | 120 µL/min/mg | 27 | 4.47 | – | –
4 | CCOC(=O)Nc1ccc(NCc2ccc(F)cc2)cc1N [Retigabine, N-(2-amino-4-(4-fluorobenzylamino)-phenyl)carbamic acid ethyl ester] | – | – | – | – | IC50 (Kv7.3/5, Kv7.4): 1.5 to 5 µM
5 | CC(C)c1cc(Cl)cc(Cl)c1C(O)c1ccc(F)c(CC(=O)NCC2(O)CCC2)c1 (racemic) [Compound 533] | – | – | – | – | IC50 (hTRPV1 [5]): 21.2 µM; IC50 (human Kv7.2/3 channels): 1.5 µM; microsomal CLint [1]: 658 µL/min/mg; solubility kinetic at 10 min ([2]; HHBS buffer with 0.2% DMSO, aqueous with cosolvent or surfactant or cyclodextrin, kinetic from dmso stock, read-out: Kinetic Sol.): 41 µM (≈ 18.6 µg/mL); LogD ([3]; lipid phase / aqueous phase, read-out: LogD): 4.36; capsaicin-evoked rat DRGs spiking ([6]; 100 nM): inhibition is gained; current-evoked rat DRGs spiking ([6]; 100 nM): inhibition decreases; inhibition at 1.5 h, 50 µM (hERG [7]): 0%; IC50 (hERG [8]): > 50 µM
6 | CC(C)c1cc(Cl)cc(Cl)c1C(=O)c1ccc(F)c(CC(=O)NCC2(O)CC2)c1 [Compound 573] | 441 µL/min/mg | 24 | 4.34 | – | –
7 | O=C(Cc1cncc(-n2cc(Cl)c3cc(Cl)cc(Cl)c32)c1)NCCO [Compound 649] | 27.3 µL/min/mg | 10 | 4.19 | – | –
8 | Cc1cn(-c2ccc(F)c(CC(=O)NCC(C)(C)O)c2)c2c(Cl)cc(Cl)cc12 [Compound 421-6] | – | – | – | (0%) | inhibition of current induced AP activity ([6]; 100 nM): 10.1±3.4%; inhibition of current induced AP responses ([6]; 500 nM): 51.2±8.4%; inhibition of the capsaicin induced AP response ([6]; 500 nM): 86.5±8.4%; inhibition of AP response to Capsaicin activation ([6]; 2 μM): 97.9±2.1%; inhibition of AP response to current activation ([6]; 2 μM): 77.7±5.6%; capsaicin induced tetanic action potential burst [9]: alleviates
9 | CC(C)c1cc(Cl)cc(Cl)c1C(=O)c1ccc(F)c(CC(=O)NCC(C)(C)O)c1 [Compound 417-4] | 91.84 µL/min/mg | 66 | 4.08 | (0%) | –
10 | CC(C)c1cc(Cl)cc(Cl)c1C(O)c1ccc(F)c(CC(=O)NCC(C)(C)O)c1 (stereo not drawn) [Compound 417] | 89.1 µL/min/mg | – | – | (0%) | –
11 | COC[C@@H](CO)NC(=O)Cc1cc(Sc2c(Cl)cc(Cl)cc2C(C)C)ccc1F [Compound 414] | 686 µL/min/mg | – | – | (0%) | –
12 | CC(C)(C)c1ccc(/C=C/C(=O)Nc2ccc3c(c2)OCCO3)cc1 [AMG9810, reference compound] | – | – | – | – | reduction of Capsaicin evoked firing ([6]; 50 nM): about 50%; TRPV1-inhibition potency gain in cells co-expressing hKv7.2/3 and hTRPV1 (hTRPV1 [10]): failure to gain TRPV1-inhibition potency
13 | O=C(Cc1cncc(-n2cc(Cl)c3cc(Cl)cc(Cl)c32)c1)N[C@H]1COC[C@@H]1O [Compound 663] | 53.6 µL/min/mg | 26 | 3.52 | – | –
